Where only a bound is given, the exact number is not on record here.

For the test, the target named is T1, PERK (Homo sapiens, UniProt Q9NZJ5).
T1 construct: GST-PERK (536-1116) cytoplasmic domain was purchased from Invitrogen; purchased Invitrogen PV5106
T1 sequence (Q9NZJ5 536-1116): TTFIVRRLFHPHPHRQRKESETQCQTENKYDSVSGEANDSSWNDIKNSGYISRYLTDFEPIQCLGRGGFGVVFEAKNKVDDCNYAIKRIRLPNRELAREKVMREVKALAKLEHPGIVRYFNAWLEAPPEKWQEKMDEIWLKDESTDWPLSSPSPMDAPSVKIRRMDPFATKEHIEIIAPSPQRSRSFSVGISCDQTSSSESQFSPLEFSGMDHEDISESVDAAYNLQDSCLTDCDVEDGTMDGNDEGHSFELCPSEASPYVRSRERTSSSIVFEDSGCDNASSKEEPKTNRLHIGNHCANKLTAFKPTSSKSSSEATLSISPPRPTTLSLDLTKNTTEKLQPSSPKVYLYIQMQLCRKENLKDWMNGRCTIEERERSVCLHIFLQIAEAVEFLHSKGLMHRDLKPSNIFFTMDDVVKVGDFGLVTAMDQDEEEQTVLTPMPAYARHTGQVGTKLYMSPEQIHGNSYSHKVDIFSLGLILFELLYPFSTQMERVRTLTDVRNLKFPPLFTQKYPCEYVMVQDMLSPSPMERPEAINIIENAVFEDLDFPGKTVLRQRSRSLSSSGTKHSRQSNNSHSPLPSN
As to the kind of experiment: PKR-like Endoplasmic Reticulum Kinase (PERK) Assay (HTRF Format). The test is classed as biochemical. As to conditions: average, in at least one set of experimental runs; read-out: average pIC50 value against PERK (converted). How it is done:
PKR-like Endoplasmic Reticulum Kinase (PERK) Assay (HTRF Format)
Source of substrate: elF2α: 6-His-Full-length human elF2α is purified from baculovirus expression in Sf9 insect cells. The elF2 protein is buffer exchanged by dialysis into PBS, chemically modified by NHS-LC-Biotin and then buffer exchanged by dialysis into 50 mm TRIS pH 7.2/250 mM NaCl/5 mM DTT. Protein is aliquoted and stored at −80° C.
Assays were performed by adding GST-PERK solution to assay plates containing compounds and pre-incubated for 30 minutes at room temperature. The reaction is initiated by the addition of ATP and EIF2α substrate solution. Quench solution is added following a one hour incubation at room temperature. The plates are covered for 2 hours at room temperature prior to determination of signal. The resulting signal is quantified on a Viewlux Reader (PerkinElmer). The APC Signal is normalized to the Europium signal by transforming the data through an APC/Eu calculation.
Compounds under analysis were dissolved in DMSO to 1.0 mM and serially diluted 1 to 3 with DMSO through eleven dilutions. 0.1 μl of each concentration was transferred to the corresponding well of an assay plate. This creates a final compound concentration range from 0.00017 to 10 μM.
The data for concentration response curves were plotted as % Inhibition calculated with the data reduction formula 100*(1−(U1−C2)/(C1−C2)) versus concentration of compound where U is the unknown value, C1 is the average control value obtained for 1% DMSO, and C2 is the average control value obtained for 0.1 M EDTA. Data were fitted with a curve described by:
where A is the minimum y, B is the maximum y concentration [M], D is the slope factor, and x is the log10 of the compound.
In the above data, pIC50 is defined as −log(IC50) where the IC50 value is expressed in molar units.
Turning to `Cc1cc(F)cc(CC(=O)N2CCc3cc(-c4nn(C)c5ncnc(N)c45)ccc32)c1` [Example 29, 3-{1-[(3-fluoro-5-methylphenyl)acetyl]-2,3-dihydro-1H-indol-5-yl}-1-methyl-1H-pyrazolo[3,4-d]pyrimidin-4-amine], the IC50 was at most 0.316 nM.

Consider `Cn1cc(-c2ccc3c(c2)CCN3C(=O)Cc2cccc(C(F)(F)F)n2)c2c(N)ncnc21` [Example 125, 7-methyl-5-(1-{[6-(trifluoromethyl)-2-pyridinyl]acetyl}-2,3-dihydro-1H-indol-5-yl)-7H-pyrrolo[2,3-d]pyrimidin-4-amine], for which the IC50 is at most 1 nM.

With `Nc1ncnc2occ(-c3ccc4c(c3)CCN4C(=O)Cc3cc(F)cc(C(F)(F)F)c3)c12` [Example 119, 5-(1-{[3-fluoro-5-(trifluoromethyl)phenyl]acetyl}-2,3-dihydro-1H-indol-5-yl)furo[2,3-d]pyrimidin-4-amine], the IC50 was at most 2.51 nM.

Regarding `Nc1nccc2scc(-c3ccc4c(c3)CCN4C(=O)Cc3cc(F)ccc3F)c12` [Example 6, 3-{1-[(2,5-difluorophenyl)acetyl]-2,3-dihydro-1H-indol-5-yl}thieno[3,2-c]pyridin-4-amine], the IC50 is at most 2.51 nM.

Consider `Cc1cccc(CC(=O)N2CCc3cc(-c4cn(C5CCNCC5)c5ncnc(N)c45)ccc32)c1` [Example 62, 5-{1-[(3-methylphenyl)acetyl]-2,3-dihydro-1H-indol-5-yl}-7-(4-piperidinyl)-7H-pyrrolo[2,3-d]pyrimidin-4-amine], for which the IC50 is at most 1 nM.

As to `Cc1cccc(CC(=O)N2CCc3cc(-c4cn(C)c5ncnc(N)c45)ccc32)c1C` [Example 81, 5-{1-[(2,3-dimethylphenyl)acetyl]-2,3-dihydro-1H-indol-5-yl}-7-methyl-7H-pyrrolo[2,3-d]pyrimidin-4-amine], the IC50 was at most 1 nM.

For `Cn1nc(N)c2c(-c3ccc4c(c3)CCN4C(=O)Cc3cccc(C(F)(F)F)c3)cncc21` [Example 143, 1-methyl-4-(1-{[3-(trifluoromethyl)phenyl]acetyl}-2,3-dihydro-1H-indol-5-yl)-1H-pyrazolo[3,4-c]pyridin-3-amine], the IC50 was at most 1 nM.

With `Cn1cc(-c2ccc3c(c2)CCN3C(=O)Cc2ccc(F)cc2F)c2c(N)ncnc21` [Example 102, 5-{1-[(2,4-difluorophenyl)acetyl]-2,3-dihydro-1H-indol-5-yl}-7-methyl-7H-pyrrolo[2,3-d]pyrimidin-4-amine], the IC50 is at most 2.51 nM.

In the case of `COc1cccc(CC(=O)N2CCc3cc(-c4csc5ccnc(N)c45)ccc32)c1` [Example 23, 3-(1-{[3-(methyloxy)phenyl]acetyl}-2,3-dihydro-1H-indol-5-yl)thieno[3,2-c]pyridin-4-amine], the IC50 was at most 2.51 nM.

As to `Cn1cc(-c2ccc3c(c2)CCN3C(=O)Cc2cccc(Cl)c2)c2c(N)ncnc21` [Example 46, 5-{1-[(3-chlorophenyl)acetyl]-2,3-dihydro-1H-indol-5-yl}-7-methyl-7H-pyrrolo[2,3-d]pyrimidin-4-amine], the IC50 was at most 0.316 nM.

Take `Nc1ncc(-c2ccncc2)c2scc(-c3ccc4c(c3)CCN4C(=O)Cc3ccccc3)c12` [Example 9, 3-[1-(phenylacetyl)-2,3-dihydro-1H-indol-5-yl]-7-(4-pyridinyl)thieno[3,2-c]pyridin-4-amine]: the IC50 is at most 1 nM.

Regarding `CN(C)CCn1cc(-c2ccc3c(c2)CCN3C(=O)Cc2cccc(C(F)(F)F)c2)c2c(N)ncnc21` [Example 134, 7-[2-(dimethylamino)ethyl]-5-(1-{[3-(trifluoromethyl)phenyl]acetyl}-2,3-dihydro-1H-indol-5-yl)-7H-pyrrolo[2,3-d]pyrimidin-4-amine], the IC50 is at most 1 nM.

With `Cc1cc(F)cc(CC(=O)N2CCc3cc(-c4cn(C)c5ncnc(N)c45)ccc32)c1` [Example 45, 5-{1-[(3-fluoro-5-methylphenyl)acetyl]-2,3-dihydro-1H-indol-5-yl}-7-methyl-7H-pyrrolo[2,3-d]pyrimidin-4-amine], the IC50 was at most 0.316 nM.

Values taken from patent US20120077828A1, “CHEMICAL COMPOUNDS” (priority 2010, published 2012).
